From PubChem BioAssay AID743494 (The Scripps Research Institute Molecular Screening Center, 2014)
Active and inactive are the calls of the source. The rule behind the calls is not given here.

Test system: Ga16 counterscreen cells, calcium fluorescence antagonism
Test: Ga16 cell calcium inhibition, analog series – fluorescence, dose response, MedChem round 1, counter-screen for TAAR1 agonist project, SAR follow-up (AID 743494)

SMILES: O=C(CCN1CCC(c2ccccc2)C1)c1ccccc1 (stereo unspecified)
- IC50: > 29.9 µM (inactive)

SMILES: NC(=O)CCN1C[C@H](c2ccccc2)[C@@H]2[C@H]1C1CCN2CC1
- IC50: > 29.9 µM (inactive)

SMILES: O=C(CCN1C[C@@H](C(=O)O)[C@H](c2cccc(F)c2)C1)NC1CC1
- IC50: > 29.9 µM (inactive)

SMILES: Cc1ccc(C(=O)CCN2CCC(c3ccccc3)C2)cc1 (stereo unspecified)
- IC50: > 29.9 µM (inactive)

SMILES: CC1CN(CCC(=O)c2ccc3c(c2)OCCO3)CC1c1ccccc1 (stereo unspecified)
- IC50: > 29.9 µM (inactive)

SMILES: O=C(CCN1C[C@@H](C(=O)O)[C@H](c2ccccc2)C1)NC1CCCC1
- IC50: > 29.9 µM (inactive)

SMILES: CC(CN1CCC(c2ccccc2)C1)C(=O)c1ccc2c(c1)OCCO2 (stereo unspecified)
- IC50: > 29.9 µM (inactive)

SMILES: O=C(CCN1CCC(O)(c2ccc(F)cc2)C1)c1ccc2c(c1)OCCO2 (stereo unspecified)
- IC50: > 29.9 µM (inactive)

SMILES: CC(CN1CCCC1Cc1ccccc1)C(=O)c1ccc2c(c1)OCCO2 (stereo unspecified)
- IC50: > 29.9 µM (inactive)

SMILES: O=C(CCN1CCC(O)(c2ccccc2)C1)c1ccc2c(c1)OCCO2 (stereo unspecified)
- IC50: > 29.9 µM (inactive)

SMILES: O=C(CCN1C[C@@H](C(=O)O)[C@H](c2ccccc2)C1)NCc1cccs1
- IC50: > 29.9 µM (inactive)
